# According to ChEMBL document CHEMBL1201862, “PubChem BioAssay data set” (2004):
# Activity calls are given as the source filed them.
# Key:
# Cytochrome P450 2C19 = Cytochrome P450 2C19 (Homo sapiens, UniProt P33261); assay: Cytochrome panel assay with activity outcomes. Panel member name: p450-cyp2c19 Compounds with AC50 equal or less than 10 uM are considered active; assay type: functional
# [1] = biological target: T1, Heat shock factor protein 1 (Mus musculus, UniProt P38532); assay: decrease of HSF1-responsive luciferase luminescence – cell-based, NIH3T3, dose retest, confirmation (AID 2382); assay type: functional;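 further: NIH3T3 fibroblasts with HSF1-driven luciferase reporter stressed by proteasome inhibitor MG132; luminescence from HSF1-driven luciferase expression after 8 hours of MG132 stress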
# T1 sequence (P38532 whole entry): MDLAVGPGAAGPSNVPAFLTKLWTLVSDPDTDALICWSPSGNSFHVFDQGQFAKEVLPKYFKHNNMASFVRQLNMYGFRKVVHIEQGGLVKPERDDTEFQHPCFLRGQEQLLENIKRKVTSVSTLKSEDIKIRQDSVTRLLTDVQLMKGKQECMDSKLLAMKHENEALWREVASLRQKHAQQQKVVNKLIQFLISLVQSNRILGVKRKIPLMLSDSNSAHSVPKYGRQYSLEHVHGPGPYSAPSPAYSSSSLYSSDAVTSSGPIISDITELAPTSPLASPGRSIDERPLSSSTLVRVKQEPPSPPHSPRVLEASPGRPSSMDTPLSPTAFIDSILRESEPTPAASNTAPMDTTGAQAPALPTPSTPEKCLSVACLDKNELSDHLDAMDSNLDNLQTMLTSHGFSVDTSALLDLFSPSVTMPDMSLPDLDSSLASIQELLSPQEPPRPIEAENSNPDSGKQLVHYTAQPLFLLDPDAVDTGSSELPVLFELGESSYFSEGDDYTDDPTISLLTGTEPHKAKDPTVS
# Cytochrome P450 2C9 = Cytochrome P450 2C9 (Homo sapiens, UniProt P11712)
# Sequence of Cytochrome P450 2C9 (P11712 whole entry): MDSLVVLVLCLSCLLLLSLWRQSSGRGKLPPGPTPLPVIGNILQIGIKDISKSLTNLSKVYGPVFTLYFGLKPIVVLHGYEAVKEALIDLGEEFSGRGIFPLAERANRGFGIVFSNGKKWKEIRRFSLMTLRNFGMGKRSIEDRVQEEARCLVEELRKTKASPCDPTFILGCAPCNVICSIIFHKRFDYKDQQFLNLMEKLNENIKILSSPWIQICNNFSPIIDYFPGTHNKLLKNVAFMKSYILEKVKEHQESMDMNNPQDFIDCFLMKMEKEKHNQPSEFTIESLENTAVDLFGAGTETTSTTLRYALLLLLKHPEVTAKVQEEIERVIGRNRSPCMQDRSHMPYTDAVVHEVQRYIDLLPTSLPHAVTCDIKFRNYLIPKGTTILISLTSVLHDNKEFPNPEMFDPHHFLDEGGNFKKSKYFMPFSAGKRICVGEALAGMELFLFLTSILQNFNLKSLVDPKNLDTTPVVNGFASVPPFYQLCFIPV
# Cytochrome P450 3A4 = Cytochrome P450 3A4 (Homo sapiens, UniProt P08684);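 further: CYP3A4 tested as one member of a cytochrome P450 panel screen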
# Sequence of Cytochrome P450 3A4 (P08684 whole entry): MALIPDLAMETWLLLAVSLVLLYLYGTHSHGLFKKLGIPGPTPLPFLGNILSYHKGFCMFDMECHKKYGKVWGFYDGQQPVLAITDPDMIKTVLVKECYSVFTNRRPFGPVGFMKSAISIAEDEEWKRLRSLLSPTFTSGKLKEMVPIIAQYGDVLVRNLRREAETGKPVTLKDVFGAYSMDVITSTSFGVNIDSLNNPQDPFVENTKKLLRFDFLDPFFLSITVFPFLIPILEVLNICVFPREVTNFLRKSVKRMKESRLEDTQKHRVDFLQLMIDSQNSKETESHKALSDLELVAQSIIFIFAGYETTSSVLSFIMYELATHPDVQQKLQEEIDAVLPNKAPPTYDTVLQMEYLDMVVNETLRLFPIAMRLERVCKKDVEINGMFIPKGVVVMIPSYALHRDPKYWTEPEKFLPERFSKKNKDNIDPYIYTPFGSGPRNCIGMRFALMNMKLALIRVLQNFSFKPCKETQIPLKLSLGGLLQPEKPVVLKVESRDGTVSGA
# Cytochrome P450 2D6 = Cytochrome P450 2D6 (Homo sapiens, UniProt P10635);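 further: CYP2D6 member of a cytochrome P450 panel assay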
# Sequence of Cytochrome P450 2D6 (P10635 whole entry): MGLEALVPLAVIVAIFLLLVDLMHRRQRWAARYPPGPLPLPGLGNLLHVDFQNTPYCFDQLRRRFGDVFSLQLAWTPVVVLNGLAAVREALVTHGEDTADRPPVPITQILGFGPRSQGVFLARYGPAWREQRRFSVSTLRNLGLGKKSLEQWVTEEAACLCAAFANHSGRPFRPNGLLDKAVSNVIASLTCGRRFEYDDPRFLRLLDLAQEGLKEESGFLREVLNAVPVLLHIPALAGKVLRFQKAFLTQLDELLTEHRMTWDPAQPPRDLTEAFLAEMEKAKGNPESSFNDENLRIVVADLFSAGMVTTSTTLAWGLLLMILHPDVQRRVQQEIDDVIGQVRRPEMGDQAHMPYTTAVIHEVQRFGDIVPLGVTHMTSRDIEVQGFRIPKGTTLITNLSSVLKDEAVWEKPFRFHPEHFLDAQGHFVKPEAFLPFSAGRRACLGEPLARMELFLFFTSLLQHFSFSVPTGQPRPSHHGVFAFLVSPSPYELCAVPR
# [2] = Luminescence Cell-Based Dose Retest to Confirm Inhibitors of Cancer Stem Cells. [Related pubchem assays (depositor defined):AID2717, AID2721]; assay type: functional; details: Homo sapiens
# [3] = NIH3T3 cell viability loss – ATP luminescence, mouse fibroblasts, counter-screen, dose response (AID 2010); assay type: functional, cell-based;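 further: cells exposed to compound for about 90 hours before reading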
# [4] = Trypanosoma cruzi growth suppression in host cells – NIH3T3 host cells, beta-gal luminescence, confirmation (AID 2044); assay type: functional, cell-based;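 further: intracellular parasites grown in NIH/3T3 mouse fibroblasts as host cells; luminescent beta-galactosidase reporter signal from transgenic T. cruzi replicating inside host cells; inhibitors lower the luminescence signal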
# Sequence of Cytochrome P450 2C19 (P33261 whole entry): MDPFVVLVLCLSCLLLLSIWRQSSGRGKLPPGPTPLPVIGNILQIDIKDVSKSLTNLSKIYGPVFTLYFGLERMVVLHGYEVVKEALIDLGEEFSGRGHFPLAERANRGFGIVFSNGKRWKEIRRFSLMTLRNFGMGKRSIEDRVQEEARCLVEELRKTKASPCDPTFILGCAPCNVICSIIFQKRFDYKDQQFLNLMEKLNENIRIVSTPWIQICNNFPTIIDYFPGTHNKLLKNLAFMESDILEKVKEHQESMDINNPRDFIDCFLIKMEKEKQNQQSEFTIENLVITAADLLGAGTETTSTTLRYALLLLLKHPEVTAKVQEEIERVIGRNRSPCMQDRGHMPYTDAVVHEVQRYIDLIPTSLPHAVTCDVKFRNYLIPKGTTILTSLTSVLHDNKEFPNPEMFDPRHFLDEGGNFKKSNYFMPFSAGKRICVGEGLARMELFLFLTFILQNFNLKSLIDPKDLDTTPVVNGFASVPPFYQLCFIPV
compound,measurement,setting,value
CCOc1ccc(-c2nnc3ccc(SC)nn23)cc1,AC50,Cytochrome P450 2C19; read-out: AC50,7.94 µM (inconclusive)
Cc1cc(Cl)ccc1OCC(=O)Nc1nc(-c2cccnc2)cs1,EC50,[1],> 195 µM (not active)
CC(=O)CC(=O)Nc1ccc2ccccc2c1,AC50,Cytochrome P450 2C19,inconclusive
Cc1cc(N2CCOCC2)ncc1[N+](=O)[O-],AC50,Cytochrome P450 2C9,14.1 µM (inconclusive)
Cc1ccc(C(=O)Nc2ccc(C(=O)/C=C/c3cccs3)cc2)cc1,AC50,Cytochrome P450 2C19; read-out: AC50,7.08 µM (inconclusive)
same,AC50,Cytochrome P450 2C9,11.2 µM (inconclusive)
same,AC50,Cytochrome P450 3A4,5.01 µM (inconclusive)
CCc1c(C)c(C#N)c2nc3ccccc3n2c1Nc1c(C)n(C)n(-c2ccccc2)c1=O,AC50,Cytochrome P450 2C19; read-out: AC50,25.1 µM (inconclusive)
same,AC50,Cytochrome P450 2C9,5.01 µM (inconclusive)
Cc1cccn2c(=O)c3cc(C(=O)N4COCC4(C)C)n(C)c3nc12,AC50,Cytochrome P450 2C19; read-out: AC50,4.47 µM (inconclusive)
O=C(Cn1c(-c2cscn2)nc2ccccc21)Nc1cc(F)ccc1F,AC50,Cytochrome P450 2D6,22.4 µM (inconclusive)
CN1CC[C@@]2(CCCN(C(=O)c3cc(C(F)(F)F)cc(C(F)(F)F)c3)C2)C1,AC50,Cytochrome P450 3A4,25.1 µM (inconclusive)
CCC1=NN(C(=O)c2ccc(Cl)cc2)C(O)(c2ccc(C)cc2)C1 (stereo not given),AC50,[2],4.64 µM (active)
COc1ccc(-n2c(-c3ccccc3)nc(=S)c3c2CCCC3)cc1,AC50,Cytochrome P450 3A4,20 µM (inconclusive)
O=C(COC(=O)c1cccnc1Cl)c1ccccc1,AC50,Cytochrome P450 2C19; read-out: AC50,39.8 µM (inconclusive)
same,AC50,Cytochrome P450 2C9,17.8 µM (inconclusive)
CS(=O)(=O)N1CCN(c2cccc(Cl)n2)CC1,EC50,[1],> 195 µM (not active)
C=CCC(C(=O)OC)(C(=O)OC)c1ccc([N+](=O)[O-])cn1,AC50,Cytochrome P450 2C19; read-out: AC50,14.1 µM (inconclusive)
COc1ccc(OC)c(-c2csc(N(CC3CCCO3)C(=O)C3CCCCC3)n2)c1 (stereo not given),AC50,[2],3.5 µM (active)
N=C(N)N[C@H](CCC(=O)O)C(=O)O,AC50,Cytochrome P450 3A4,3.16 µM (inconclusive)
Cc1cccc(CNc2nc(-c3ccc4c(c3)OCO4)nc3ccccc23)c1,AC50,Cytochrome P450 2C9,1 µM (inconclusive)
Cc1cccc(N(C(=O)C(F)(F)F)C(C(=O)NC2CCCCC2)c2cccs2)c1 (stereo not given),EC50,[3],> 60 µM (not active)
same,EC50,[4],3.39 µM (active)
CC(=O)Nc1ccccc1C(=O)OCC(=O)c1ccc2ccccc2c1,AC50,Cytochrome P450 2C19; read-out: AC50,1.26 µM (inconclusive)
CC(=O)Nc1ccc2c(c1)/C(=N/c1ccc(C(=O)O)cc1)c1ccccc1-2,AC50,Cytochrome P450 3A4,3.98 µM (inconclusive)
CCc1ccc(NC(=O)C2CCC(CNC(=O)[C@@H]3Cc4ccccc4CN3)CC2)cc1 (stereo not given in full),EC50,[1],> 195 µM (not active)
COC(=O)[C@H]1C[C@@H]1[C@H](NC(=O)c1cc(C)on1)c1ccccc1,AC50,Cytochrome P450 2C9,31.6 µM (inconclusive)
same,AC50,Cytochrome P450 3A4,15.8 µM (inconclusive)
c1cncc(CNc2nc(-c3ccoc3)nc3ccccc23)c1,AC50,Cytochrome P450 2C19; read-out: AC50,20 µM (inconclusive)
COc1ccc2c(c1)C=C(CN1CCN(C3CCCC3)C(CCO)C1)CO2 (stereo not given),EC50,[3],> 60 µM (not active)
same,EC50,[4],1.75 µM (active)
O=C(c1csnn1)N1CCC[C@@]2(CCN(Cc3nccs3)C2)C1,AC50,Cytochrome P450 2C19; read-out: AC50,25.1 µM (inconclusive)
COc1cccc(CN(C)CC2CCCN(CCc3ccc(Cl)cc3)C2)c1OC (stereo not given),EC50,[1],> 195 µM (not active)
CN=C(S)N(CCc1c(C)[nH]c2ccc(Cl)cc12)Cc1cccs1,EC50,[3],> 30 µM (not active)
same,EC50,[4],2.28 µM (active)
N#Cc1cc(-c2ccc(Cl)cc2)cnc1Sc1ccccc1,EC50,[3],> 60 µM (not active)
same,EC50,[4],3.77 µM (active)
CCSc1nnc(NC(=O)Cc2ccc(OC)c(OC)c2)s1,AC50,Cytochrome P450 2C19; read-out: AC50,28.2 µM (inconclusive)
same,AC50,Cytochrome P450 2C9,2.82 µM (inconclusive)
CC(C)(C)c1ccc(C(=O)Nc2cccc3c(=O)[nH][nH]c(=O)c23)cc1,EC50,[1],3.66 µM (active)
Cc1ccc(C)c(N2CN(Cc3cccnc3)CN=C2S)c1,EC50,[3],> 60 µM (inconclusive)
same,EC50,[4],0.726 µM (active)
Cc1cc(C(=O)Nc2nc3c(s2)CCCC3)cs1,AC50,[2],1.97 µM (active)
NC(=O)c1cc2ccncc2c2ccccc12,EC50,[1],4.29 µM (active)
Cc1ccccc1-c1cncnc1Nc1ccccc1,AC50,Cytochrome P450 2D6,39.8 µM (inconclusive)
C[C@@]12CCC(=O)C=C1CC[C@H]1[C@@H]2[C@@H](O)C[C@]2(C)[C@@H]1CC[C@@]2(O)C(=O)COC(=O)C1CCCC1,AC50,Cytochrome P450 3A4,5.01 µM (inconclusive)
COC(=O)[C@@]1(Cc2ccc(OC)cc2)[C@H]2c3cc(C(=O)N4CCCC4)n(Cc4cc(F)c(F)c(F)c4)c3C[C@H]2CN1C(=O)c1ccccc1,AC50,Cytochrome P450 2C19; read-out: AC50,1.58 µM (inconclusive)
CCOc1ccc(CCNC(=O)c2nn(C)c3c2CS(=O)(=O)c2ccccc2-3)cc1,EC50,[1],> 195 µM (not active)
Cn1c(=N)n(CC(O)c2ccccc2)c2ccccc21 (stereo not given),EC50,[1],> 195 µM (not active)
CCn1cc(S(=O)(=O)Nc2ccc3c(c2)OCCO3)cn1,EC50,[1],1.86 µM (active)
CCCNC(=O)c1cccc(COCC(F)(F)F)c1,EC50,[1],> 195 µM (not active)
COc1ccccc1-c1cncnc1NCCNC(C)=O,AC50,Cytochrome P450 2C19; read-out: AC50,39.8 µM (inconclusive)
CCOC(=O)N1CCC(NC(=O)CCC(=O)N2CCOc3ccccc32)CC1,AC50,Cytochrome P450 2C19; read-out: AC50,14.1 µM (inconclusive)
same,AC50,Cytochrome P450 3A4,10 µM (inconclusive)
COc1ccc(CN2CCN(Cc3csc(C(C)=O)c3)CC2CCO)c(C)c1C (stereo not given),EC50,[3],> 60 µM (not active)
same,EC50,[4],0.284 µM (active)
Cc1ccc(C(=O)N(CCCN(C)C)c2nc3ccc(Cl)cc3s2)cc1C,EC50,[3],> 60 µM (inconclusive)
same,EC50,[4],0.216 µM (active)
O=S(=O)(NCC(c1cccnc1)N1CCN(Cc2ccccc2)CC1)c1ccc(Cl)cc1 (stereo not given),EC50,[3],> 60 µM (not active)
same,EC50,[4],0.641 µM (active)
COCCn1c(=O)[nH]c2cc(C(=O)N3CCN(c4ccccc4OC)CC3)ccc2c1=O,AC50,Cytochrome P450 2C19; read-out: AC50,6.31 µM (inconclusive)
same,AC50,Cytochrome P450 3A4,14.1 µM (inconclusive)
COC(=O)C/C=C\[C@@H](C)[C@@H](/C=N\OC[C@@H](C)[C@H](OCc1ccccc1)C(C)C)OC,AC50,Cytochrome P450 2C19; read-out: AC50,2 µM (inconclusive)
same,AC50,Cytochrome P450 2C9,3.16 µM (inconclusive)
same,AC50,Cytochrome P450 3A4,3.16 µM (inconclusive)
CN1CCN(c2ccc(S(=O)(=O)N3CCOCC3)cc2NC(=O)CCc2ccccc2)CC1,EC50,[3],> 30 µM (not active)
same,EC50,[4],1.58 µM (active)
Cc1nn(-c2ccccc2)c2nc(N)c(C#N)c(-c3ccc(C(C)(C)C)cc3)c12,AC50,[2],2.14 µM (active)
N#Cc1ccccc1-c1ccc2ncnc(NCc3cccs3)c2c1,AC50,Cytochrome P450 2C19; read-out: AC50,39.8 µM (inconclusive)
same,AC50,Cytochrome P450 2C9,1 µM (inconclusive)
O=C(Oc1ccccc1)N1CCC2(CCCN(c3ccccc3)C2)CC1,AC50,Cytochrome P450 2C9,12.6 µM (inconclusive)
same,AC50,Cytochrome P450 3A4,31.6 µM (inconclusive)
COc1ccc(/C=C/C(=O)OCCCN(C)C)cc1,EC50,[3],> 60 µM (not active)
same,EC50,[4],0.237 µM (active)
COc1cc(NC(=O)N[C@@H](Cc2c[nH]c3ccccc23)C(=O)O)c(C(=O)O)cc1OC,EC50,[1],> 195 µM (not active)
CCC(=O)N1CCc2cc(S(=O)(=O)NC(C(=O)NCc3ccc(C)cc3)C(C)C)ccc21 (stereo not given),EC50,[1],> 195 µM (not active)
CC1(C)C[C@H](O)[C@]2(CO)[C@H](O)C[C@]3(C)C(=CCC4[C@@]5(C)CC[C@H](O)C(C)(C)C5CC[C@]43C)[C@@H]2C1 (stereo not given in full),AC50,[2],1.97 µM (active)
Cc1ccc(-c2csc(NCCn3c(-c4ccncc4)nc4cc(C(F)(F)F)ccc43)n2)cc1,AC50,[2],8 µM (active)
CCOC(=O)c1c(C)nc2c(c1-c1ccccc1)C(=O)CC(C)(C)C2,AC50,Cytochrome P450 2C9,15.8 µM (inconclusive)
CC(=O)OC1N=C(c2ccccc2)c2cc(Br)ccc2N(C)C1=O (stereo not given),AC50,Cytochrome P450 2C19; read-out: AC50,39.8 µM (inconclusive)
same,AC50,Cytochrome P450 2C9,17.8 µM (inconclusive)
CC(C)(C)C(=O)N1CCC(O)(CS(=O)(=O)Cc2ccc(Cl)cc2)CC1,AC50,Cytochrome P450 3A4,20 µM (inconclusive)
COc1ccc(CC2SC(N/N=C/c3ccccc3O)=NC2=O)cc1 (stereo not given),AC50,[2],8.79 µM (active)
C/C(=N\NC(=O)c1c(C)nc2ccccn12)c1ccc(C(C)(C)C)cc1,EC50,[1],> 195 µM (not active)
COc1cc(C(=O)N/N=C(\Cc2ncc[nH]2)c2ccccc2)cc(OC)c1OC,AC50,[2],2.89 µM (active)
CCc1nnc(N/N=C\c2ccc(OC(C)=O)c(OC)c2)n1N,EC50,[1],> 195 µM (not active)
C/C(=N\N(Cc1ccccc1)c1ccccc1)c1cccnc1,EC50,[3],> 60 µM (not active)
same,EC50,[4],3.78 µM (active)
Cc1ccc(-c2nnc(S)n2/N=C/c2cccn2C)cc1,AC50,Cytochrome P450 2D6,5.01 µM (inconclusive)
CCN1C(=O)/C(=C\c2ccncc2)S/C1=N\c1ccc(C)c(C)c1,AC50,[2],3.77 µM (active)
Cc1cc(C)c(S(=O)(=O)N/N=C/c2ccc3c(c2)OCO3)c(C)c1,EC50,[1],> 195 µM (not active)
Cc1[nH]n(-c2ccccc2)c(=O)c1/N=N/c1cccc([N+](=O)[O-])c1,EC50,[3],> 60 µM (not active)
same,EC50,[4],> 30 µM (not active)
O=C1C=CC(=O)c2c1ccc1c2ccc2ccccc21,AC50,Cytochrome P450 2D6,5.01 µM (inconclusive)
CC1=C(CC(=O)O)c2cc(F)ccc2/C1=C\c1ccc(S(C)(=O)=O)cc1 [EXISULIND],AC50,Cytochrome P450 2C19,inconclusive
